Laboratory results as given in US12428424B2, “Estrogen receptor-modulating compounds” (RADIUS PHARMACEUTICALS, INC., priority 2019, dated 2025).

Tested on: E2-induced increase in uterine weight
Assay: Immature rat uterine assay
Format: in vivo, Sprague-Dawley rat
Conditions: immature rats, oral dose of 3 mg/kg in combination with E2 (0.01 mg/kg), once daily for three days
Method: Immature Rat Uterine Assay
Sprague-Dawley rat pups were weaned at 19 days of age, randomized into groups (n=6), and administered vehicle (aqueous 20% HPBCD, 10% PEG400 in H2O), E2 (0.01 mg/kg), test compounds (0.1 mg/kg-3 mg/kg) in combination with E2 (0.01 mg/kg), either by subcutaneous injection or by oral gavage, once daily for three consecutive days. Twenty-four hours after the final dose, all animals were killed by carbon dioxide inhalation. Body weights and wet uterine weights were recorded for each animal. GraphPadPrism 6.0 software was used to analyze data.

SMILES	wet uterine weight
Cc1ccccc1-c1c(F)c2c3cn[nH]c3ccc2n1Cc1ccc(CCNCCCF)cc1F [Compound D-105, 3-fluoro-N-(3-fluoro-4-((8-fluoro-7-(o-tolyl)pyrrolo[3,2-e]indazol-6(3H)-yl)methyl)phenethyl)propan-1-amine]	suppressed wet uterine weight to baseline

Tested on: MCF-7 cells
Assay: MCF-7 Proliferation Inhibition Assay (E2-induced proliferation, CellTiterGlo)
Format: cell-based
Conditions: Homo sapiens, MCF7, 168 h, 10 pM dose of E2, 7 days incubation
Method: Proliferation Assay in MCF-7 and T47 D Cells
MCF-7 and T47D cells were stripped for 3 days in phenol red-free RPMI1640 media containing 10% charcoal-stripped fetal bovine serum (CS-FBS) and 1% Penicillin/streptomycin (P/S). Cells (volume of 90 μl/well) were seeded in 96 well plates at a density of 2500 cells/well for MCF-7 cells and 1500 cells/well for T47D cells. On the following day, plates were treated with the test compounds (10× concentration in media, volume of 10 μl/well added) both in the absence and in the presence of two doses of E2 (10 pM and 1 nM). The cells were incubated with test compounds for 7 days. The viability of the cells was assessed using CellTiterGlo (Promega, Cat #G7573) according to the manufacturer's instructions. Growth inhibition curves and IC50 values were calculated using the GraphPadPrism 6.0 software. Data values shown in Table 1 were obtained using the 10 pM dose of E2.

IC50	SMILES
< 1 nM	Cc1ccccc1-c1c(F)c2c3cn[nH]c3ccc2n1Cc1c(F)cc(CCNCCCF)cc1F [Compound D-106, N-(3,5-difluoro-4-((8-fluoro-7-(o-tolyl)pyrrolo[3,2-e]indazol-6(3H)-yl)methyl)phenethyl)-3-fluoropropan-1-amine]
< 1 nM	Cc1ccccc1-c1cc2c3c(F)n[nH]c3ccc2n1Cc1ccc(CCNCCCF)cc1F [Compound D-108, 3-Fluoro-N-(3-fluoro-4-((1-fluoro-7-(o-tolyl)pyrrolo[3,2-e]indazol-6(3H)-yl)methyl)phenethyl)propan-1-amine]
< 1 nM	Cc1ccccc1-c1c(F)c2c3c(F)n[nH]c3ccc2n1Cc1ccc(CCNCCCF)cc1 [Compound D-107, N-(4-((1,8-difluoro-7-(o-tolyl)pyrrolo[3,2-e]indazol-6(3H)-yl)methyl)phenethyl)-3-fluoropropan-1-amine]
< 1 nM	Cc1ccccc1-c1c(Cl)c2c3cn[nH]c3ccc2n1Cc1ccc(CCNCCCF)cc1 [Compound D-109, N-(4-((8-Chloro-7-(o-tolyl)pyrrolo[3,2-e]indazol-6(3H)-yl)methyl)phenethyl)-3-fluoropropan-1-amine]
< 1 nM	Cc1ccccc1-c1c(F)c2c3cn[nH]c3ccc2n1Cc1ccc(CCNCCCF)cc1F [Compound D-105, 3-fluoro-N-(3-fluoro-4-((8-fluoro-7-(o-tolyl)pyrrolo[3,2-e]indazol-6(3H)-yl)methyl)phenethyl)propan-1-amine]
